Laboratory results from BindingDB's records for PubMed 35227979 (Northwest University, 2022).

Target: Beta-2 adrenergic receptor (Homo sapiens, UniProt P07550)
Test: Binding affinity to immobilized Halo tag-fused beta2 adrenoceptor (unknown origin) expressed in Escherichia coli BL21 (DE3) assessed as dissociation rate constant by receptor chromatography

Chain of Beta-2 adrenergic receptor (P07550 whole entry, the tested form may be a part): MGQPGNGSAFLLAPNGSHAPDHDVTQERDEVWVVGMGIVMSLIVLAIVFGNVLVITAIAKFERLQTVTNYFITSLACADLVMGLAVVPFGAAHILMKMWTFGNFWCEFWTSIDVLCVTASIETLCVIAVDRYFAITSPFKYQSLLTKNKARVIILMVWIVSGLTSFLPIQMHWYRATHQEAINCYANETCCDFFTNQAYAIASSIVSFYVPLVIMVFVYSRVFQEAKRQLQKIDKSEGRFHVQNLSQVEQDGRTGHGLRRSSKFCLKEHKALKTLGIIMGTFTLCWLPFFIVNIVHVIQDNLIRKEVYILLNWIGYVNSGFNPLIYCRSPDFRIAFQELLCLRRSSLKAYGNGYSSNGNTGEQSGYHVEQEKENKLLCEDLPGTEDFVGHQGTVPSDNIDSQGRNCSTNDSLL

SMILES | Kd [nM]
CC1(C)[C@@H](O)CC[C@]2(C)[C@H]3C(=O)C=C4[C@@H]5C[C@@](C)(C(=O)NCCc6ccc(O)cc6)CC[C@]5(C)CC[C@@]4(C)[C@]3(C)CC[C@@H]12 | 7.5
CNC(C)Cc1ccccc1OC (configuration not stated) [Methoxyphenamine] | 0.98
